Measurements taken from PubChem BioAssay (NCI).
Values joined by “and” are separate entries in the source; they are usually repeats but may differ in a detail not shown here. Equal values may be shown once.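 Cultured in 96-well plates, cells were exposed to test compound for 48 hours across five concentrations. GI50: concentration for 50% inhibition of growth. TGI marks complete inhibition of growth.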

Legend:
Assay in all cases: NCI tumour cell line growth inhibition, 48 h
[1] = test system: 786-0 renal
[2] = test system: A549 NSCLC
[3] = test system: ACHN renal
[4] = test system: CAKI-1 renal
[5] = test system: CCRF-CEM leukemia
[6] = test system: COLO 205 colon
[7] = test system: DU-145 prostate
[8] = test system: EKVX NSCLC
[9] = test system: HCT-116 colon
[10] = test system: HCT-15 colon
[11] = test system: HOP-62 NSCLC
[12] = test system: HS 578T breast
[13] = test system: HT29 colon
[14] = test system: IGROV1 ovarian
[15] = test system: K-562 leukemia
[16] = test system: KM12 colon
[17] = test system: LOX IMVI melanoma
[18] = test system: M14 melanoma
[19] = test system: MCF7 breast
[20] = test system: MDA-MB-435
[21] = test system: MDA-N
[22] = test system: MOLT-4 leukemia
[23] = test system: NCI-H23 lung
[24] = test system: NCI-H460 lung
[25] = test system: NCI-H522 lung
[26] = test system: NCI/ADR-RES ovarian
[27] = test system: OVCAR-3 ovarian
[28] = test system: OVCAR-5 ovarian
[29] = test system: OVCAR-8 ovarian
[30] = test system: PC-3 prostate
[31] = test system: RPMI-8226 leukemia
[32] = test system: SF-268 CNS
[33] = test system: SF-295 CNS
[34] = test system: SF-539 CNS
[35] = test system: SK-MEL-2 melanoma
[36] = test system: SK-MEL-28 melanoma
[37] = test system: SK-MEL-5 melanoma
[38] = test system: SN12C renal
[39] = test system: SNB-19 CNS
[40] = test system: SNB-75 CNS
[41] = test system: SR leukemia
[42] = test system: SW-620 colon
[43] = test system: T-47D breast
[44] = test system: TK-10 renal
[45] = test system: UACC-257 melanoma
[46] = test system: UACC-62 melanoma
[47] = test system: UO-31 renal
[48] = test system: A498 renal
[49] = test system: HCC-2998 colon
[50] = test system: HL-60(TB) leukemia
[51] = test system: MALME-3M melanoma
[52] = test system: MDA-MB-231 breast
[53] = test system: OVCAR-4 ovarian
[54] = test system: RXF 393 renal
[55] = test system: SK-OV-3 ovarian
[56] = test system: BT-549 breast
[57] = test system: HOP-92 NSCLC
[58] = test system: NCI-H226 lung
[59] = test system: U251 CNS

In the case of `COc1ccc(C2c3cc4c(cc3OC(N3CCCCC3)C2C)OCO4)cc1` (stereo not drawn), the TGI [1] is reported as greater than 100 µM, the TGI [2] is reported as greater than 100 µM and the TGI [3] is reported as greater than 100 µM. It also gave a TGI [4] of 84.9 µM, a TGI [5] greater than 100 µM and a TGI [6] greater than 100 µM. It also gave a TGI [7] greater than 100 µM, a TGI [8] greater than 100 µM and a TGI [9] greater than 100 µM. It also gave a TGI [10] greater than 100 µM, a TGI [11] greater than 100 µM and a TGI [12] of 87.8 µM. For the same molecule, the TGI [13] was greater than 100 µM, the TGI [14] was greater than 100 µM and the TGI [15] was greater than 100 µM. It also gave a TGI [16] greater than 100 µM, a TGI [17] greater than 100 µM and a TGI [18] greater than 100 µM. The TGI [19] was greater than 100 µM, the TGI [20] was greater than 100 µM and the TGI [21] was greater than 100 µM. It also gave a TGI [22] greater than 100 µM, a TGI [23] greater than 100 µM and a TGI [24] greater than 100 µM. The TGI [25] was greater than 100 µM, the TGI [26] was greater than 100 µM and the TGI [27] was greater than 100 µM. It also gave a TGI [28] greater than 100 µM, a TGI [29] greater than 100 µM and a TGI [30] greater than 100 µM. It also gave a TGI [31] greater than 100 µM, a TGI [32] greater than 100 µM and a TGI [33] greater than 100 µM. The TGI [34] was greater than 100 µM, the TGI [35] was greater than 100 µM and the TGI [36] was greater than 100 µM. The TGI [37] was greater than 100 µM, the TGI [38] was greater than 100 µM and the TGI [39] was greater than 100 µM. The TGI [40] was greater than 100 µM, the TGI [41] was greater than 100 µM and the TGI [42] was greater than 100 µM. The TGI [43] was greater than 100 µM, the TGI [44] was greater than 100 µM and the TGI [45] was greater than 100 µM. For the same molecule, the TGI [46] was greater than 100 µM and the TGI [47] was greater than 100 µM.

In the case of `CCCCCCCCCCCCCCCCn1cc[n+](Cc2ccccc2)c1C`, the GI50 [1] is reported as 0.541 µM and 0.21 µM, the TGI [1] is reported as 1.87 µM and 0.621 µM and the GI50 [48] is reported as 1.69 µM and 0.421 µM. For the same molecule, the TGI [48] was 3.94 µM and 1.8 µM, the GI50 [2] was 1.15 µM and the TGI [2] was 2.57 µM. The GI50 [3] was 1.89 µM, the TGI [3] was 7 µM and the GI50 [5] was 0.401 µM. The TGI [5] was 2.48 µM, the GI50 [7] was 1.07 µM and 0.235 µM and the TGI [7] was 2.3 µM and 1.05 µM. It also gave a GI50 [8] of 0.703 µM, a TGI [8] of 2.28 µM and a GI50 [49] of 0.413 µM. The TGI [49] was 1.64 µM, the GI50 [50] was 0.0496 µM and the TGI [50] was 2.06 µM. For the same molecule, the GI50 [12] was 3.62 µM, the TGI [12] was greater than 100 µM and the GI50 [13] was 0.297 µM. For the same molecule, the TGI [13] was 1.08 µM, the GI50 [14] was 1.09 µM and the TGI [14] was 2.29 µM. The GI50 [16] was 1.36 µM and 0.176 µM, the TGI [16] was 2.87 µM and 0.407 µM and the GI50 [18] was 0.425 µM. For the same molecule, the TGI [18] was 1.91 µM, the GI50 [51] was 0.809 µM and the TGI [51] was 2.61 µM. The GI50 [19] was 1.12 µM and 0.289 µM, the TGI [19] was 2.39 µM and 0.968 µM and the GI50 [52] was 0.0684 µM. For the same molecule, the TGI [52] was 0.989 µM, the GI50 [21] was 0.328 µM and the TGI [21] was 1.32 µM. The GI50 [22] was 2.46 µM, the TGI [22] was greater than 100 µM and the GI50 [23] was 0.361 µM. For the same molecule, the TGI [23] was 1.8 µM, the GI50 [24] was 0.479 µM and the TGI [24] was 1.8 µM. For the same molecule, the GI50 [25] was 0.451 µM, the TGI [25] was 1.88 µM and the GI50 [26] was 8.02 µM and 1.55 µM. The TGI [26] was 48.6 µM and 7.01 µM, the GI50 [27] was 0.178 µM and 0.175 µM and the TGI [27] was 0.947 µM and 0.49 µM. It also gave a GI50 [53] of 0.451 µM, a TGI [53] of 4.55 µM and a GI50 [28] of 1.48 µM. It also gave a TGI [28] of 3.25 µM, a GI50 [31] of 0.104 µM and a TGI [31] of 0.444 µM. For the same molecule, the GI50 [54] was 0.0122 µM, the TGI [54] was 0.341 µM and the GI50 [32] was 0.548 µM. The TGI [32] was 1.77 µM, the GI50 [33] was 0.866 µM and 0.263 µM and the TGI [33] was 2.28 µM and 1.22 µM. The GI50 [34] was 1.67 µM, the TGI [34] was 4.36 µM and the GI50 [35] was 1.52 µM. The TGI [35] was 3.26 µM, the GI50 [36] was 1.7 µM and 0.246 µM and the TGI [36] was 4.22 µM and 1.35 µM. The GI50 [55] was 1.71 µM and 0.5 µM, the TGI [55] was 4.67 µM and 1.81 µM and the GI50 [38] was 1.07 µM and 0.156 µM. For the same molecule, the TGI [38] was 2.34 µM and 1.17 µM, the GI50 [39] was 0.565 µM and the TGI [39] was 2.01 µM. For the same molecule, the GI50 [40] was 0.262 µM, the TGI [40] was 0.899 µM and the GI50 [43] was 0.207 µM. For the same molecule, the TGI [43] was 0.951 µM, the GI50 [44] was 0.86 µM and the TGI [44] was 2.2 µM. The GI50 [45] was 1.27 µM, the TGI [45] was 11.2 µM and the GI50 [46] was 0.577 µM and 0.232 µM. For the same molecule, the TGI [46] was 2.01 µM and 1.21 µM, the GI50 [47] was 1.49 µM and the TGI [47] was 2.99 µM.

Work on `CC(C)CCC/C(CBr)=C(\Cl)CCl` yielded a TGI [1] of 3.67 µM, a TGI [48] of 35.2 µM and a TGI [2] of 31 µM. The TGI [3] was 23.3 µM, the TGI [56] was 3.52 µM and the TGI [4] was 9.35 µM. The TGI [6] was 3.54 µM, the TGI [7] was 17.2 µM and the TGI [8] was 30.3 µM. For the same molecule, the TGI [49] was 21 µM, the TGI [9] was 7.03 µM and the TGI [10] was 11.4 µM. The TGI [11] was 20.8 µM, the TGI [57] was 4.54 µM and the TGI [12] was 7.46 µM. It also gave a TGI [13] of 5.97 µM, a TGI [14] of 4.05 µM and a TGI [16] of 5.51 µM. For the same molecule, the TGI [17] was 0.542 µM, the TGI [18] was 4.23 µM and the TGI [51] was 7.88 µM. The TGI [19] was 12.9 µM, the TGI [52] was 8.34 µM and the TGI [20] was 6.25 µM. The TGI [21] was 3.91 µM, the TGI [22] was 2.88 µM and the TGI [58] was 25.7 µM. For the same molecule, the TGI [23] was 8.11 µM, the TGI [24] was 18.5 µM and the TGI [25] was 0.409 µM. The TGI [26] was 10.7 µM, the TGI [27] was 6.73 µM and the TGI [53] was 2.93 µM. It also gave a TGI [28] of 29.1 µM, a TGI [29] of 3.86 µM and a TGI [30] of 13.2 µM. The TGI [54] was 8.17 µM, the TGI [32] was 9.89 µM and the TGI [33] was 26.5 µM. For the same molecule, the TGI [34] was 23.6 µM, the TGI [35] was 2.97 µM and the TGI [36] was 5.19 µM. It also gave a TGI [37] of 6 µM, a TGI [55] of 22.3 µM and a TGI [38] of 8.85 µM. For the same molecule, the TGI [39] was 28.6 µM, the TGI [40] was 4.71 µM and the TGI [42] was 3.07 µM. It also gave a TGI [44] of 3.72 µM, a TGI [59] of 13.4 µM and a TGI [45] of 4.78 µM. The TGI [47] was 8.4 µM.
